Patent US10882859B2, “Kinase inhibitors” (Topivert Pharma Limited, priority 2015, dated 2021)
In brackets after ≈: the same amount, converted by molar mass. Where two headings read alike, the source gives them in different places.

Experiments:
[1] = Solubility in fasted-state simulated colonic fluid (FaSSCoF); type: physicochemical; details: 25 °C, pH 6.5, fassgf or other biorelevant, thermodynamic from solid, pH 6.5, 25° C.
Method: The solubilities of compounds of the invention in FaSSCoF at pH 6.5 are determined using a modification of a previously-reported procedure (Vertzoni, M., et al. Pharm. Res. 2010, 27, 2187-2196). In place of the bile salt extract employed in the original procedure (which extract is no longer available), the modified procedure uses a mixture of sodium taurochlorate (0.15 g), glycocholic acid (0.15 g), ursodeoxycholic acid (0.05 g), cholic acid (0.05 g), and glycodeoxycholic acid (0.05 g). These five bile acids are ground together with a mortar and pestle to produce a fine white powder that is incorporated into the FaSSCoF, as outlined below.
FaSSCoF medium: Tris(hydroxymethyl)aminomethane (Tris; 0.275 g) and maleic acid (0.44 g) are dissolved in water (35 mL) to give a solution whose pH is adjusted to 6.5 by treatment with 0.5M NaOH (ca. 12 mL). The solution is then made up to 50 mL with water. A portion of this Tris/maleate buffer solution (ca. 25 mL) is added to a 0.5 L round-bottomed flask, before being treated with 0.00565 g of the bile acid mixture described above. Solutions of phosphatidylcholine (0.0111 g) in DCM (0.15 mL) and palmitic acid (0.0013 g) in DCM (0.15 mL) are added, then the organic solvent is evaporated off under reduced pressure at 40° C. until a clear solution, with no perceptible DCM odour, is achieved. The volume of the evaporated solution is adjusted to 50 mL by addition of the remainder of Tris/maleate buffer, then BSA (0.115 g) is added, before being dissolved by gentle agitation.
Solubility Determination: Test compounds are suspended in the pH 6.5 FaSSCoF medium to give a maximum final concentration of 2-10 mg/mL. The suspensions are equilibrated at 25° C. for 24 h, before being filtered through a glass fibre C filter. The filtrates are then diluted as appropriate for injection and quantification by HPLC with reference to a standard. Different volumes of the standard, diluted and undiluted sample solutions are injected and the solubilities are calculated using the peak areas determined by integration of the peak found at the same retention time as the principal peak in the standard injection.

[2] = tested on: Jurkat cells; experiment: Cell cytotoxicity assay (propidium iodide, flow cytometry); type: cell-based, human; details: 24 h
Method: 1×10^5 Jurkat cells (immortalised human T lymphocytes) are added to the appropriate number of wells of a 96 well plate in 100 μL of media (RPMI supplemented with 10% foetal bovine serum). 1 μL of DMSO control (final concentration 1.0% v/v) or test compound (final concentration 20, 5 or 1 μg/mL) is added to the wells and incubated at 37° C., 5% CO2. After 24 hours, the plate is centrifuged at 1200 rpm for 3 minutes and the supernatant discarded. Cells are then resuspended in 150 μL (final concentration 7.5 μg/mL) of propidium iodide (PI) in PBS and incubated at 37° C., 5% CO2 for 15 minutes. After 15 minutes, cells are analysed by flow cytometry (BD accuri) using the FL3 window. The % viability is calculated as the % of cells that are PI negative in the test wells normalised to the DMSO control.

[3] = target: JAK1 (Homo sapiens (Human), UniProt P23458); experiment: KINOMEscan enzyme binding assay (DiscoveRx), JAK1; details: read-out: Dissociation Constant JAK1
Method: (§1) These assays may be conducted by DiscoveRx (formerly Ambit; San Diego, Calif.). The percentage inhibition produced by incubation with a test compound may be calculated relative to the non-inhibited control.

[4] = target: JAK3 (Homo sapiens (Human), UniProt P52333); experiment: KINOMEscan enzyme binding assay (DiscoveRx), JAK3; details: read-out: Dissociation Constant JAK3
Method: as §1

[5] = Systemic pharmacokinetics and total colon tissue distribution after single oral administration; type: in vivo, male C57BL/6 mice; details: mice, oral 10 mg/kg; for concentration at 0.5 h / concentration at 1 h / concentration at 2 h / concentration at 4 h / concentration at 6 h / concentration at 8 h / concentration at 12 h / concentration at 24 h: male, C57BL/6, mouse
Method: Studies were conducted by Sai Life Sciences (Hinjewadi, Pune, India) to investigate the systemic pharmacokinetics and total colon tissue distribution of compounds of the invention following a single oral administration in male C57BL/6 mice.
A group of twenty four male mice were administered with a solution of test compound formulated at a dose of 10 mg/10 mL/kg in aqueous hydroxypropyl-β-cyclodextrin (20% w/v in water). Blood samples ([…]) were collected from retro-orbital plexus of each mouse under light isoflurane anaesthesia such that the samples were obtained at 0.5, 1, 2, 4, 6, 8, 12 and 24 hr. The blood samples were collected from a set of three mice at each time point in a labeled micro centrifuge tube containing K2EDTA as anticoagulant. Plasma samples were separated by centrifugation at 4000 rpm for 10 min and stored below −70° C. until bioanalysis. After collection of blood sample, animals were humanely euthanized by carbon dioxide asphyxiation to collect total colon tissues. The colons were flushed with cold PBS (pH7.4) to remove contents. The total colon tissues were homogenized with cold PBS (pH7.4) of twice the weight of colon tissue and stored below −70° C. Total volume was three times the total colon tissue weights. All samples were processed for analysis by protein precipitation using acetonitrile and analyzed with a fit-for-purpose LC-MS/MS method. Pharmacokinetic parameters were calculated using the non-compartmental analysis tool of Phoenix WinNonlin® (Version 6.3).

[6] = target: JAK2 (Homo sapiens (Human), UniProt O60674); experiment: KINOMEscan enzyme binding assay (DiscoveRx), JAK2; details: read-out: Dissociation Constant JAK2
Method: as §1

[7] = target: TYK2 (Homo sapiens (Human), UniProt P29597); experiment: KINOMEscan enzyme binding assay (DiscoveRx), TYK2; details: read-out: Dissociation Constant TYK2
Method: as §1

[8] = tested on: CD3/IL2 stimulated PBMC cells; experiment: IFNγ release from CD3/IL2 stimulated PBMC cells; type: cell-based; details: Homo sapiens, CD3/IL2 stimulation, 48 h, ELISA
[9] = total colon tissue, total colon, read-out: Mean total colon level
[10] = plasma, read-out: Mean plasma concentration

Chain of JAK3 (P52333 whole entry): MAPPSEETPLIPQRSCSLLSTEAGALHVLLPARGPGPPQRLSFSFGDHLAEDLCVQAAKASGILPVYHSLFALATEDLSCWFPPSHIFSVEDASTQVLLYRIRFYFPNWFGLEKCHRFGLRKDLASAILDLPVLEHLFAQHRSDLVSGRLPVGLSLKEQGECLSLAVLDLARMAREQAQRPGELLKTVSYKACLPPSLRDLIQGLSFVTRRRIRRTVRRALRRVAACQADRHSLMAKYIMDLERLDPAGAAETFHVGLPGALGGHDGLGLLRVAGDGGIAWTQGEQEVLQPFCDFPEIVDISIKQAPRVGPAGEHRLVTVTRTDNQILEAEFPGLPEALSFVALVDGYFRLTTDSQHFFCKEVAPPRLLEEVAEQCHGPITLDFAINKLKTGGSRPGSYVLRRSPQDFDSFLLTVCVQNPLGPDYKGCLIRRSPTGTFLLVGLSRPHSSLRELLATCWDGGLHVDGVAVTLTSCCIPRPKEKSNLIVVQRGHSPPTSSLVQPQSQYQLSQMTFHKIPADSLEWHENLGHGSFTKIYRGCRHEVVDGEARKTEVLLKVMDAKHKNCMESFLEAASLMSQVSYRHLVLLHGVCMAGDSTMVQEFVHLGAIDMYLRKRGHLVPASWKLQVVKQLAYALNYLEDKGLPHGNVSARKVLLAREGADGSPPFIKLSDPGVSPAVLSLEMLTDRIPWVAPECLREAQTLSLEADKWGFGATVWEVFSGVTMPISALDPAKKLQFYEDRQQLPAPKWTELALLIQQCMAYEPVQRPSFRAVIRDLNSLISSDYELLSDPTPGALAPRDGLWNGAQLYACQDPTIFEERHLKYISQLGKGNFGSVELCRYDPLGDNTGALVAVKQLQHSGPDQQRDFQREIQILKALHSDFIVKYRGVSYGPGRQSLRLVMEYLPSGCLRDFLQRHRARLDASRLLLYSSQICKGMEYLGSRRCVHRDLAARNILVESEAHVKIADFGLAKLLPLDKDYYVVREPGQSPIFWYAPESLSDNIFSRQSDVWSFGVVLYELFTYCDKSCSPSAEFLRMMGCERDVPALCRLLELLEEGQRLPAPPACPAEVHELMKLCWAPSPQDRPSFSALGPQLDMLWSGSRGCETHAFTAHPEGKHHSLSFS
Chain of JAK2 (O60674 whole entry): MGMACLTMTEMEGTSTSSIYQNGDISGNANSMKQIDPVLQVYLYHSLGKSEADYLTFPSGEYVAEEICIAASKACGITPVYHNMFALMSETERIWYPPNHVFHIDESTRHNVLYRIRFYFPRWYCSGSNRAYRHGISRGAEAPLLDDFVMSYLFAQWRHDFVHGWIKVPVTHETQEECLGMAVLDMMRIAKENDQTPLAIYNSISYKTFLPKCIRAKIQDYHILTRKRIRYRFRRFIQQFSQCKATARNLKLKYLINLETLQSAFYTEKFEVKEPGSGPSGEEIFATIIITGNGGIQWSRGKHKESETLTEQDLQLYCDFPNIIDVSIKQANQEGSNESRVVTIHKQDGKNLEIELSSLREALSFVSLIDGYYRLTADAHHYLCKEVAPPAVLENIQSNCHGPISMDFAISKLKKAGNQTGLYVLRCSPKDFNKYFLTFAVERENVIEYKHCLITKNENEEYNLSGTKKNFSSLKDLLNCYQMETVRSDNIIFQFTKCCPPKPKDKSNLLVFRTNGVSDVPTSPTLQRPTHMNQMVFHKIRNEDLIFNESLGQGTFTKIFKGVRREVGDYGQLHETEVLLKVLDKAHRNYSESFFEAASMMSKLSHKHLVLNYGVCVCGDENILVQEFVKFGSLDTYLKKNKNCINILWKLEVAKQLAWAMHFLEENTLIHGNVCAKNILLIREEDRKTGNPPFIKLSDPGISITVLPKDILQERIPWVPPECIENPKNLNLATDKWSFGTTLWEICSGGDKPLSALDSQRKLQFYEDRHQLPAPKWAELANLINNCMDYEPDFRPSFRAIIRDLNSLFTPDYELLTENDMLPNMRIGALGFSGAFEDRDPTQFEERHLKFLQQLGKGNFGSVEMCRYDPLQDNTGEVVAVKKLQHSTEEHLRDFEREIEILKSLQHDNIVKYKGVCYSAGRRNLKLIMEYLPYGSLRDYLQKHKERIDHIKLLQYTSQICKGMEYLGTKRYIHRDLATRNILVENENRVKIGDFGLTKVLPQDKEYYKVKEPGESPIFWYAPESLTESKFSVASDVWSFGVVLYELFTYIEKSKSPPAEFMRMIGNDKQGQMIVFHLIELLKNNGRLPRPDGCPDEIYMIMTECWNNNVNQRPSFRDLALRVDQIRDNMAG
Chain of TYK2 (P29597 whole entry): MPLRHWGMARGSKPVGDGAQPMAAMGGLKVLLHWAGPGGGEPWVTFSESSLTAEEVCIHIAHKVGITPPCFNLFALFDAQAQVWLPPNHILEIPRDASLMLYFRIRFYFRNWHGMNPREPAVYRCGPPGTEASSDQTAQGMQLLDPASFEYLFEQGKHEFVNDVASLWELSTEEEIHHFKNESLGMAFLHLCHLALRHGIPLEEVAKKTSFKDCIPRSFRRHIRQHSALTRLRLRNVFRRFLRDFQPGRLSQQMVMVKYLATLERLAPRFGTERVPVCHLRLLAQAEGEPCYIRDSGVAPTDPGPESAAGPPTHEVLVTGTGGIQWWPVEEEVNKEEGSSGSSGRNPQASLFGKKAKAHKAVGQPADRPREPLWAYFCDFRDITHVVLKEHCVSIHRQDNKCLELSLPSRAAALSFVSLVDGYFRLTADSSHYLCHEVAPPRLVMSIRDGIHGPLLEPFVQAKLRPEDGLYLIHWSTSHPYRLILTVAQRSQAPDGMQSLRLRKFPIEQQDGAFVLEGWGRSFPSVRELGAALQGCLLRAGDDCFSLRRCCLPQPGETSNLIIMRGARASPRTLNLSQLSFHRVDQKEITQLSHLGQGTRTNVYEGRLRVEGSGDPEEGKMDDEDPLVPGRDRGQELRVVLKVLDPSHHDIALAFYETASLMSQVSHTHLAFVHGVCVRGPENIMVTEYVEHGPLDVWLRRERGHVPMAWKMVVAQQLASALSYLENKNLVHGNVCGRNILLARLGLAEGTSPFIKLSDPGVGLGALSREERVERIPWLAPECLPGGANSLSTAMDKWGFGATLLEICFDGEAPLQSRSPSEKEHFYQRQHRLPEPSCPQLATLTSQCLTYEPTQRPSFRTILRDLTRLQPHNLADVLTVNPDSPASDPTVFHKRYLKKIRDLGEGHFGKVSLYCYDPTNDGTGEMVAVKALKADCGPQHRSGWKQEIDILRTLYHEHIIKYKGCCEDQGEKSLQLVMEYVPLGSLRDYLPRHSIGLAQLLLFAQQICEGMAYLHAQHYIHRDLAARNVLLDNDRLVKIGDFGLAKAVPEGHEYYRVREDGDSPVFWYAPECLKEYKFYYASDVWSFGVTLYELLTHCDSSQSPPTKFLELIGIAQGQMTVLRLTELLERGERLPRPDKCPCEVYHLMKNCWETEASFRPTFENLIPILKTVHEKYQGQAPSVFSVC
Chain of JAK1 (P23458 whole entry): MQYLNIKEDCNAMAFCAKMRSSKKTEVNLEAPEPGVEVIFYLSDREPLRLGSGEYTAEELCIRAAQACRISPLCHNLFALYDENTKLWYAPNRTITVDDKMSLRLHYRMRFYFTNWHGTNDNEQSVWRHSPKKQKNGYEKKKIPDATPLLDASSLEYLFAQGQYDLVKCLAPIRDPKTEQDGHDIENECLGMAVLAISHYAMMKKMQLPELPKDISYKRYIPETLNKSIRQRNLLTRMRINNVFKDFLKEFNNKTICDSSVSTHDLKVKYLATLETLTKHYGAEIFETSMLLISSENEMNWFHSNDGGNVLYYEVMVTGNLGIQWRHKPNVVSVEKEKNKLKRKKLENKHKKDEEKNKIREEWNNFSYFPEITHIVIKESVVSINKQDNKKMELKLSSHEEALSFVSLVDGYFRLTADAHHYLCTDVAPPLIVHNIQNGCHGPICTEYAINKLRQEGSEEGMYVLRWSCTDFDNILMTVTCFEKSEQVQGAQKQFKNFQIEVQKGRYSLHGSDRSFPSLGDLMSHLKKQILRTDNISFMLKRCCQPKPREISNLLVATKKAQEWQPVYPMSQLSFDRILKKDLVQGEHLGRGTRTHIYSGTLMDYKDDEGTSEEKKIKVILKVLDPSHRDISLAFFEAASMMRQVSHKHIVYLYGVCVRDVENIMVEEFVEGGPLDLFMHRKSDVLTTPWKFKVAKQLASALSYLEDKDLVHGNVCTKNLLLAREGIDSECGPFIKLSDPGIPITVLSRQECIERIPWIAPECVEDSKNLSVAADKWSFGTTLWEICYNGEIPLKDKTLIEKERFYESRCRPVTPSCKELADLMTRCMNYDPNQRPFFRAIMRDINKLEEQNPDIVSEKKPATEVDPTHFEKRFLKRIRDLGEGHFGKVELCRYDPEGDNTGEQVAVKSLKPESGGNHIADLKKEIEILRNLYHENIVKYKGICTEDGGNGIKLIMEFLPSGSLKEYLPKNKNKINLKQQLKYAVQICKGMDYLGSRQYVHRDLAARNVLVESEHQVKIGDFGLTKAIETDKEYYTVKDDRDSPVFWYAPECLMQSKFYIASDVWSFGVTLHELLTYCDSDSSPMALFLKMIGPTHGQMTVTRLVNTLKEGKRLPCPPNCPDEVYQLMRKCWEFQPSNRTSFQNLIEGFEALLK

solubility thermodynamic at 24 h ([1]; Run 1, read-out: pH 6.5 FaSSCoF Solubility, Run 1): 40 µg/mL (≈ 81.5 µM)
solubility thermodynamic at 24 h ([1]; Run 2, read-out: pH 6.5 FaSSCoF Solubility, Run 2): 20 µg/mL (≈ 40.8 µM)
Kd [3]: 620 pM
Kd [4]: 98 pM
concentration at 0.5 h [5, 9]: 327 ng/g
concentration at 1 h [5, 9]: 984 ng/g
concentration at 2 h [5, 9]: 19700 ng/g
concentration at 4 h [5, 9]: 4690 ng/g
concentration at 6 h [5, 9]: 8440 ng/g
concentration at 8 h [5, 9]: 11900 ng/g
concentration at 12 h [5, 9]: 4790 ng/g
concentration at 24 h [5, 9]: 350 ng/g
concentration at 0.5 h [5, 10]: 6.1 ng/mL
concentration at 1 h [5, 10]: 1.8 ng/mL
concentration at 2 h [5, 10]: 1.9 ng/mL
concentration at 4 h [5, 10]: 0 ng/mL
concentration at 6 h [5, 10]: 0 ng/mL
concentration at 8 h [5, 10]: 0 ng/mL
concentration at 12 h [5, 10]: 0 ng/mL
concentration at 24 h [5, 10]: 0 ng/mL
Systemic plasma exposure ([5]; plasma): very low
Colonic exposure AUC0-24 h ([5]; total colon): 132,979 h·ng/g
Kd [6]: 52 pM
Kd [7]: 110 pM
Structure (SMILES): CCc1cc(O)c(F)cc1-c1ccc2c(-c3nc4c([nH]3)CCN(C(=O)N3CCOCC3)C4)n[nH]c2c1 [Example 1, (2-(6-(2-Ethyl-5-fluoro-4-hydroxyphenyl)-1H-indazol-3-yl)-1,4,6,7-tetrahydro-5H-imidazo[4,5-c]pyridin-5-yl)(morpholino)methanone]
% viability at 1 μg/mL [2]: 40%
IC50 [8]: 3600 pM
